Values of other authors, collected in PMC11267572, “A Repurposed Drug Interferes with Nucleic Acid to Inhibit the Dual Activities of Coronavirus Nsp13” (ACS Chemical Biology, 2024).

Tested on: SARS-CoV-2 Omicron variant
Parameters: method as in PMID 36899912
Settings: bronchial epithelial cells; cited from earlier work

O=C(NCc1ccc(Oc2ccccc2)cc1)c1nc(-c2cc(Br)c(O)c(Br)c2)no1 [IOWH-032]
inhibition of viral replication: micromolar inhibition
